Residues, ends and D or L forms follow the SMILES beside them.
Assays:
CHC 1–574 = target: T1, CHC 1–574 (Homo sapiens, UniProt Q00610); experiment: FP binding assay, CHC 1–574; details: 50 nM FAM peptide, pH 7.5, 25°C, mutant vs WT phospho-TACC3^CID
T1 construct: GST (cleaved yes); made in house
Experimental: For CHC‐TACC3 FP assays, CHC proteins were serially diluted in FP buffer (20 mM HEPES–NaOH pH 7.5, 200 mM NaCl, 5 mM DTT). FAM‐labelled TACC3 peptide was added to a final concentration of 50 nM and incubated for 30 min at room temperature to allow binding to reach equilibrium. Fluorescence polarization measurements were made using a Victor X5 plate reader (Perkin Elmer) at 25°C with excitation at 490 nm and emission at 535 nm. Data analysis was performed as described above.

Aurora‐A = details: whether T288 is phosphorylated or not, ref Bayliss et al, 2003, Eyers et al, Dodson & Bayliss, 2012; cited from earlier work
Text: The activity of Aurora‐A is controlled through phosphorylation of its activation loop on T288 (Bayliss et al, 2003; Eyers et al, 2003). Like many of its other binding partners, such as TPX2, I‐2, HEF1, and N‐Myc, TACC3 is an Aurora‐A activator (Nikonova et al, 2013; Richards et al, 2016). However, only in the case of TPX2 has the mechanism of activation, and how this synergizes with phosphorylation of T288, been resolved (Bayliss et al, 2003; Eyers et al, 2003; Dodson & Bayliss, 2012).

T1 sequence (Q00610 1-574): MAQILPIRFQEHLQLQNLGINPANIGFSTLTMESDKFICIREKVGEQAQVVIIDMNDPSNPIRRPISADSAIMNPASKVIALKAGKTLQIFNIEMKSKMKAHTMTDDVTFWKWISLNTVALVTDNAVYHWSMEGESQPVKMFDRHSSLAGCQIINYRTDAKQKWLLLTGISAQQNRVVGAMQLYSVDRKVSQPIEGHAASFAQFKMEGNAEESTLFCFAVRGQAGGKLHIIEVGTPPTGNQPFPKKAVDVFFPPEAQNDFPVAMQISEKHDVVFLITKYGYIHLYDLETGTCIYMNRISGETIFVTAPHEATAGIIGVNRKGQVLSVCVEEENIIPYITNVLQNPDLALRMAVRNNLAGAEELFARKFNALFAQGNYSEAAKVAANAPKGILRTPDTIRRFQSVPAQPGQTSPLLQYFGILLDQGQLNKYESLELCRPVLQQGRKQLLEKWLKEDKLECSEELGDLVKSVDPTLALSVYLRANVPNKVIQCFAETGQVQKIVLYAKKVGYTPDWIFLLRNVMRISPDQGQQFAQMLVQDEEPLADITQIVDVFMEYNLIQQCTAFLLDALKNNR

Molecule | factor of reduction of affinity for CHC 1–574 (CHC 1–574) | stimulation of Aurora‐A activity (Aurora‐A)
CC(C)C[C@H](NC(=O)[C@H](C)NC(=O)[C@H](CO)NC(=O)[C@H](CCC(=O)O)NC(=O)[C@H](CCCCN)NC(=O)[C@H](Cc1ccccc1)NC(=O)c1ccc2c(c1)C(=O)OC21c2ccc(O)cc2Oc2cc(O)ccc21)C(=O)N[C@@H](C)C(=O)N[C@@H](C)C(=O)N[C@@H](CCC(N)=O)C(=O)N[C@@H](COP(=O)(O)O)C(=O)N[C@@H](CC(C)C)C(=O)N[C@@H](Cc1ccc(O)cc1)C(=O)N[C@@H](CC(C)C)C(=O)N[C@@H](CCCCN)C(=O)N[C@@H](Cc1ccccc1)C(=O)N[C@@H](CC(=O)O)C(=O)N1CCC[C@H]1C(=O)N[C@@H](CC(C)C)C(=O)N[C@@H](CC(C)C)C(=O)N[C@@H](CCCNC(=N)N)C(=O)N[C@@H](CC(=O)O)C(=O)N[C@@H](CO)C(=O)O [R555A, K556A] (HELM PEPTIDE1{[O=C1OC2(c3ccc(O)cc3Oc3cc(O)ccc32)c2ccc(C(=O)[*:2])cc21].F.K.E.S.A.L.A.A.Q.[O=C([C@H](COP(=O)(O)O)N[*:1])[*:2]].L.Y.L.K.F.D.P.L.L.R.D.S}$$$$V2.0; N-terminus and C-terminus assumed) | 4–5 factor | 
TPX2 1–43: amino acids 1–43 of TPX2 (MSQVKSSYSYDAPSDFINFSSLDDEGDTQNIDSWFEEKANLEN; UniProt Q9ULW0 1-43, looked up, fragment) |  | stimulate Aurora‐A activity

— publication PMC5897774, “Mitotic spindle association of TACC3 requires Aurora‐A‐dependent stabilization of a cryptic α‐helix” (The EMBO Journal, 2018)
